Experimental data published in US12662473B2, “Inhibitors for programmed cell necrosis and preparation method therefor and use thereof” (SHANGHAI INSTITUTE OF ORGANIC CHEMISTRY, CHINESE ACADEMY OF …, priority 2019, dated 2026).
Where two headings read alike, the source gives them in different places.

Key:
FADD−/− Jurkat cells = assay: TNF-induced programmed cell necrosis inhibition, Cell Titer-Glo viability; type: cell-based; conditions: Homo sapiens, Jurkat
Method in brief: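 FADD-deficient Jurkat cells (2.5×10^5/mL) were pretreated 1 h at 37 °C with compound plus Smac (50 nM as added), then stimulated with TNFα (50 ng/mL as added) for 14 h at 37 °C, 5% CO2. Viability was measured as ATP by CellTiter-Glo luminescence, with unstimulated DMSO wells as 100%. EC50 values were derived.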

RIPK1(1-330) protein = target: T1, RIPK1(1-330) protein (Homo sapiens, UniProt Q13546); assay: ADP-Glo kinase activity assay at different ATP concentrations; type: biochemical; parameters: RIPK1(1-330) protein with a final concentration of 2 μL and ATP; made in house; conditions: FIG. 4
T1 sequence (Q13546 1-330): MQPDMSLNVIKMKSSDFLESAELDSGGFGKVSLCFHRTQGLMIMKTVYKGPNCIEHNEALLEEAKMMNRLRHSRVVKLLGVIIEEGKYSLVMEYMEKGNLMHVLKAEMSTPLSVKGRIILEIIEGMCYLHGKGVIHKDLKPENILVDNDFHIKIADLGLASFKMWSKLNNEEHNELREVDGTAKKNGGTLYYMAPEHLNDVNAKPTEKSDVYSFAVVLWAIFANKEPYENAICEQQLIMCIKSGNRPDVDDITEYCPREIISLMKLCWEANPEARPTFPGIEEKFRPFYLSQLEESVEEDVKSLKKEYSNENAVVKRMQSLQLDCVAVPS
Method: The adopted biological test protocol was: The effect of compound QY-1-98 on the kinase activity of RIPK1(1-330) protein was tested. The purified RIPK1(1-330) protein in vitro retained the complete kinase activity domain and maintained good kinase activity. Through the IC50 of the compounds of the present invention inhibiting RIPK1 kinase activity in the environment with different concentrations of ATP, the binding mode of the compounds to RIPK1 is obtained. Nec-1s, a known ATP-noncompetitive inhibitor of RIPK1, was used as a control.
RIPK1(1-330) protein with a final concentration of […] and ATP (1× kinase buffer) with a corresponding concentration were added to the 384-well plate, with a […]. At least 3 duplicate wells were set in each group. The reaction was carried out at 37° C. for 2H. 5 μL of ADP-Glo reagent was added, which is used to stop the kinase reaction and remove residual ATP from the reaction system. The reaction solution was placed at room temperature for 40 min 10 μL of kinase detection reagent was added, which is used to convert ADP to ATP and luciferase and luciferin were introduced to detect ATP in the system. The reaction was carried out at room temperature for 1H. Luminescence was detected using the 7500 Fast Real-Time PCR System. The IC50 of the compounds inhibiting the kinase reaction was calculated using Prism Graphpad statistical software.

change of IC50 with the increase of ATP concentration (RIPK1(1-330) protein; different ATP concentrations): does not change significantly
Structure (SMILES): Cc1noc([C@@H]2CCCN2C(=O)C(C)(C)Oc2ccc(Cl)cc2)n1 [QY-1-98]
EC50 (FADD−/− Jurkat cells; 14 h, TNFa + SM164, read-out: EC50 inhibitory activity on programmed cell necrosis): 1.53 µM | EC50 (FADD−/− Jurkat cells; TNFa, read-out: EC50 inhibitory activity on programmed cell necrosis): 0.128 µM | activity of RIPK1 (1-330) protein kinase in vitro (RIPK1(1-330) protein; ADP-Glo): can inhibit the activity of RIPK1 (1-330) protein kinase in vitro
